From patent US20210145768A1, “MODULATING IMMUNE RESPONSE VIA TARGETING OF OLFACTORY RECEPTOR ACTIVITY” (La Jolla Institute for Allergy and Immunology, priority 2018, published 2021)

Assays:
[1] = biological target: T1, Olfr2 (Mus musculus, UniProt Q9QWU6); assay: Calcium signalling (Fluo-4, flow cytometry) in vascular macrophages; assay type: cell-based; set-up: Olfr2 expression was confirmed at the protein level on F4/80^+ vascular macrophages; from tissue; host or cells: explanted whole aortas, digested aortic cell suspensions (F4/80+ vascular macrophages) and blood monocytes of Apoe-/- C57BL/6J mice; living Apoe-/- mice for the in vivo study
T1 sequence (Q9QWU6 1-327): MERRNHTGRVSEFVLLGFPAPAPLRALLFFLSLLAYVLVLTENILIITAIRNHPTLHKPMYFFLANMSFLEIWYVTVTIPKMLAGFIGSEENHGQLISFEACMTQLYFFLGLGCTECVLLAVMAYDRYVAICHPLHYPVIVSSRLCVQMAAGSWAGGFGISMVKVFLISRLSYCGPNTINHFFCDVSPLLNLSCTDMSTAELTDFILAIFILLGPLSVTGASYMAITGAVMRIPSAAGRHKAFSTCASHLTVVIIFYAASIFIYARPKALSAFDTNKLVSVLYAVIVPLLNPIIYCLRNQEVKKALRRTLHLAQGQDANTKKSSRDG
Procedure: The role of Olfr2 ligation on inflammatory responses was investigated by measuring intracellular free calcium (Can in vascular macrophages. Briefly, mouse aortic cell suspensions were loaded with 2 μM Fluo-4 at 37° C. for 30 min, then washed and incubated with cell surface markers at RT for 20 min CD45^+, live, dump channel^− (TCRb^−, CD19^−), F4/80^+ macrophages were analyzed by flow cytometry. Olfr2 agonist Oct (10 μM), and antagonist Cit (100 μM) alone or combined (Oct+Cit) were added 60 seconds (s) after the acquisition started. DMSO (0.1%) was injected as a control (Ctrl).
Aortic cell suspensions obtained as previously described^18 were pre-incubated with extracellular markers for vascular macrophages including CD45-PerCP, TCRβ/CD4-APCCy7 (Dump Channel), F4/80-BV421 and LD Yellow fixable dye (Invitrogen) for 20 min in Fc block solution at RT in the dark. Aortic cell suspensions were than washed twice and loaded with 2 μM of Fluo4 dye (Thermo Fischer Scientific) for 30 min at 37° C.
Subsequently, cells were washed and resuspended in 37° C. warm HBSS buffer containing Ca^2+ and Mg^2+ and acquired with the LSRII flow cytometer. After 60 seconds, Oct (10 μM), Cit (100 μM) or vehicle (DMSO 0.1%) was added and acquisition continued for additional 140 seconds. Data was acquired with FACSDiva software (BD Biosciences) and analyzed with FlowJo software (Treestar Inc). Mean fluorescence intensity of Fluo4 was integrated over 25 seconds form the start of the acquisition (tot. 8 intervals).

[2] = test system: Olfr2; assay: Olfr2, Rtp1 and Rtp2 mRNA expression (qPCR) in explanted aortas; assay type: cell-based, mouse
Text: Next, Olfr2 expression in aortas harvested from western-type diet (WD)-fed male mice (n=5) was investigated^18. Briefly, whole aortas were harvested from Apoe^−/− mice fed western-like diet (WD) for 2 weeks and treated as described above. Relative expression of Olfr2 quantified by real time PCR analysis of Olfr2 expression normalized to expression of Gapdh and untreated control.
In addition, Rtp1 and Rtp2 expression in aortas harvested from Apoe−/− mice was investigated. Briefly, explanted aortas of Apoe−/− mice treated for 12h with Oct (10 μM) and/or lipopolysaccharide (LPS, 500 ng/mL). Rtp1 and Rtp2 expression was assessed by qPCR as described above. N=3 independent experiments (relative expression calculated by 2^−ΔΔCt method). Data are presented as means±SEM. *p<0.05, **p<0.01, ***p<0.005, ****p<0.001. p calculated by One-Way ANOVA test, Tukey's multiple comparisons test.
BMDMs and hMDMs were incubated in culture media for 12 h at 37° C. and 5% CO2 with Oct, (10 μM), LPS (500 ng/mL) alone or combined with Oct (LPS+Oct) and DMSO (0.1%) as a control and lysed with Qiazol (500 μL; Qiagen) Similarly, whole aortas incubated as previously described were transferred into Qiazol (500 μl; Qiagen) and digested with gentleMACS™ Dissociator (Miltenyi).
Total RNA was quantified using a nanodrop spectrophotometer (Peqlab) and 500 ng were reverse transcribed into cDNA using Omniscript reverse transcriptase (Qiagen). Real time PCR reactions were performed according to the RT^2 SYBR green gene expression assay protocol (Qiagen). RT2 SYBR Green qPCR master mix and premade RT^2 qPCR Primer Assays for mouse Olfr2, Rtp1, Rtp2, Ccl2, Ccl4, Tnf, Nos2 and Gapdh were used. Similarly, real time PCR analysis of hMDMs samples was performed following the RT^2 SYBR green gene expression assay protocol (Qiagen), applying RT^2 SYBR Green qPCR master mix and premade RT^2 qPCR Primer Assays for human OR6A2, TNF, IL-6, NOS2 and GAPDH. The results were calculated applying the 2^−ΔΔCT method^32 using Gapdh/GAPDH as housekeeping gene.

[3] = Plasma lipids, body weight and hematological parameters in treated Apoe−/− mice; assay type: in vivo, mouse
Procedure: Male Apoe^−/− mice (9 to 10 wks old) were fed WD for 4 weeks. Oct or Cit were diluted in sterile phosphate buffered saline (PBS) (Gibco) at a final concentration of 10 μg/g. 100 μl were injected intraperitoneally (i.p.) every 3 days for 4 weeks (12 injections total) while maintaining WD administration. PBS+0.1% DMSO (Sigma Aldrich) was injected as a vehicle control following the same protocol. Mice were sacrificed, perfused with PBS implemented with 2% heparin (Fresenius Kabi USA, LLC) and aortas removed for en face atherosclerotic lesion assessment. Mouse whole blood (heart puncture) was collected in EDTA tubes. Leukocyte blood counts were determined with HemaVet 950 (Drew Scientific). Plasma was collected from blood centrifuged at 3000 g for 15 min at 4° C. and stored at −80° C. until further analysis. Lipid analysis of collected plasma was performed by IDEXX BioResearch.

[4] = biological target: T1, Olfr2; assay: Inflammatory gene expression (real time PCR) in explanted whole aortas treated with octanal, citral, LPS; assay type: cell-based; set-up: Olfr2 expression was confirmed at the protein level on F4/80^+ vascular macrophages; from tissue; host or cells: explanted whole aortas, digested aortic cell suspensions (F4/80+ vascular macrophages) and blood monocytes of Apoe-/- C57BL/6J mice; living Apoe-/- mice for the in vivo study; conditions: dose response 3, 10, 30 μM octanal, 12 h

Compound | octanal-induced calcium flux in vascular macrophages ([1]; citral 100 μM + octanal 10 μM) | Olfr2 mRNA expression ([2]; citral, data not shown) | other parameters (body weight, hematological, lipids) ([3]; citral-treated Apoe−/− mice) | octanal concentration at which enhancement of LPS-induced expression peaks [4] [µM] | calcium signal in other immune cells (TCRb+, CD19+) ([1]; octanal 10 μM, citral 100 μM alone or combined) | intracellular free calcium (Fluo-4 MFI) in F4/80+ vascular macrophages ([1]; octanal 10 μM, at 100 and 125 s after injection) | aortic Olfr2, Rtp1 and Rtp2 mRNA ([2]; LPS 500 ng/mL + octanal 10 μM ex vivo, 12 h) | Olfr2 expression (qRT-PCR) ([2]; LPS + octanal) | Olfr2 expression (qRT-PCR) ([2]; octanal alone) | total cholesterol, LDL cholesterol, HDL cholesterol or triglycerides ([3]; octanal-treated Apoe−/− mice)
CC(C)=CCCC(C)=CC=O [citral] | completely blocked | did not affect | no effect |  |  |  |  |  |  | 
CCCCCCCC=O [octanal] |  |  |  | 3 to 10 | No calcium signal | highly significant increase | significantly enhanced | further increased | no effect | no effect
